Measured values from patent US20240277767A1, “METHODS AND USES” (PROLEUKOCYTE AB, priority 2021, published 2024).
Entries after “also recorded” stand apart in the source; their conditions may differ.

Tests used:
Type in all cases: cell-based, human
NK cells = experiment: [Cr51]-release assay: lysis of tumour target cells by pre-treated NK cells after H2O2 exposure
Text: Peripheral blood samples (anonymized by-products of blood donations from healthy adult donors) were purchased from Karolinska University Hospital Blood Bank. Peripheral blood mononuclear cells (PBMC) were isolated from healthy donor buffy coats using density centrifugation with Ficoll® Paque Plus (GE Healthcare). NK cells and CD14^+ monocytes were isolated from PBMCs using NK cell isolation kit or CD14^+ microbeads, respectively (both Miltenyi Biotec), following the manufacturer's instructions. For NK cell expansion, a EBV-LCL feeder cell line was used, irradiated at 100 gy and then co-cultured with NK cells, at the ratio 10:1 LCL:NK, in X-Vivo 20 (Lonza) supplemented with 10% human AB serum and 1000 U/mL IL-2 (Proleukin). From day 6 or 10, NK cells were kept at 0.5×10^6 cells/mL or 1×10^6/mL, respectively. Purity of expanded NK cell was assessed at day 10 by flow cytometry, see below.
(§1) Lymphocytes were pre-treated for 18 h with Auranofin (AUF, with the concentration 1 μg/mL for NK cells and 0.5 μg/mL for TIL, if not indicated differently), DL-Sulforaphane (SUL) or Dimethyl Fumarate (DMF) (all Sigma-Aldrich) at indicated concentrations.
(§2) For Nrf2 inhibition, NK cells were treated with 50 μM ML-385 (Sigma-Aldrich) in parallel. For H2O2 treatment, lymphocyte cells were washed and resuspended to 1×10^6 cells/mL in medium and exposed to indicated H2O2 (Sigma-Aldrich) concentration for 1 h at 37° C. Cells were washed with medium and then used for further experiments. For monocyte experiments, autologous NK cell-monocytes or TIL-monocytes were used. NK cells/TIL were isolated and pre-treated with 0.5 μg/mL AUF, as described above, and co-cultured with unstimulated at the ratio, 1:2 M:NK, or stimulated monocytes at the ratio, 1:1 M:NK, if not indicated otherwise. Stimulated monocytes were activated with 100 ng/ml PMA for 1 min, washed and added at indicated ratio, the number of NK cell/TIL was kept constant. As control, H2O2 was used at indicated concentration. Cells were co-cultured for 2 h and then effector cells were stained for intracellular ROS (see flow cytometry) or used as effector cells in Cr^51 release assay (E:T ratio 10:1).
For cytotoxic assay, a standard 4 h [Cr^51]-release assay was used. Briefly, tumour cells were harvested and labeled with 51Cr (PerkinElmer) and used as target cells. Effector cells, NK cells and T cells, were co-cultured in 96-well V-bottom plate with indicated tumour cells at the stated effector target ratio (E:T). The supernatant was collected onto LUMA plates (Perkin-Elmer) and radioactivity/tumour cell lysis was detected by MicroBeta2 (Perkin Elmer). Target cell killing measured by % specific lysis and calculated using the formula: ((experimental release-spontaneous release)/(maximum release-spontaneous release))*100.
Lymphocytes were pre-treated for 18 h with Auranofin (AUF, with the concentration 1 μg/mL for NK cells and 0.5 μg/mL for TIL. As AUF was reconstituted in DMSO, control NK cells were pre-treated with DMSO with an equivalent volume to the highest compound concentration. For N-acetylcysteine (NAC, Invitrogen) treatment, DMSO pre-treated cells were incubated for 1 h with 5 or 10 mM NAC prior to H2O2 treatment. For H2O2 treatment, lymphocytes were washed and resuspended to 1×10^6 cells/mL in RPMI containing the indicated H2O2 (Sigma-Aldrich) concentration for 1 h at 37° C. 5% CO2. Cells were washed with medium and then used for further experiments.

ANRU TIL [1] = experiment: Viability of pre-treated ANRU TIL after H2O2 exposure (flow cytometry); details: 24 h co-culture with ANRU tumour cells, alive CD3+ T cells
Description: as §1
as §2, with “Cells were co-cultured for 2 h and then effector cells were stained for intracellular ROS (see flow cytometry) or used as effector cells in Cr^51 release assay (E:T ratio 10:1).” left out
All antibodies (see Table 1) and FACS reagents were used according to manufactures recommendation, if not stated otherwise. […] Samples were fixed with 2% PFA (Thermo scientific) for 15 min before acquired on a NovoCyte (ACEA Biosciences) and analysed using FlowJo Software (TreeStar).

[2] = test system: tumour infiltrating lymphocytes (TIL); experiment: Intracellular ROS levels in TIL (CM-H2DCFDA, flow cytometry)
Description: as §2
For TIL, T cells were pre-incubated with 10 μM CM-H2DCFDA (Thermo Fisher Scientific) solution in RPMI for 30 min at 37° C. prior to H2O2 treatment and then stained with anti-CD3, anti-CD4 and anti-CD8.

[3] = test system: CD19 directed CAR T cells; experiment: CD19-directed CAR T-cell lysis of RAJI and N6/ADR tumour cells after H2O2; details: H2O2 at different concentrations, E:T 15:1, vs control CAR T cells
Description: Melanoma patient derived TIL and CD19 directed CAR T cells were generated as previously described (Magalhaes et al., 2018; Lövgren et al., 2020).
as §2, with “Cells were co-cultured for 2 h and then effector cells were stained for intracellular ROS (see flow cytometry) or used as effector cells in Cr^51 release assay (E:T ratio 10:1).” left out
For cytotoxic assay, a standard 4 h [Cr^51]-release assay was used. […] The supernatant was collected onto LUMA plates (Perkin-Elmer) and radioactivity/tumour cell lysis was detected by MicroBeta2 (Perkin Elmer). Target cell killing measured by % specific lysis and calculated using the formula: ((experimental release-spontaneous release)/(maximum release-spontaneous release))*100.

ANRU TIL [4] = experiment: TIL infiltration into ANRU spheroids (flow cytometry, confocal microscopy); details: 48 h co-culture
Text: To study TIL infiltration into spheroids, eight spheroids of each condition were pooled and carefully washed twice with PBS, dissociated with trypsin and then stained with anti-CD3, CD4 and anti-CD8. The supernatant was collected to measure the non-infiltrated fraction.
For confocal microscopy, spheroids were fixed with 4% PFA (Thermo Scientific). Spheroids stained with anti-CD8a followed by the secondary antibody (goat-anti-mouse IgG-AF647, Biolegend) and Hoechst 33342 dye (Invitrogen). Spheroids were cleared with 88% glycerol (Sigma) overnight, transferred to 8-well u-slides (Ibidi) and imaged with the Zeiss LSM800 confocal microscope. Spheroids were also analyzed for T cell infiltration using flow cytometry, see above.

ANRU TIL [5] = experiment: ANRU TIL exposed to activated autologous monocytes: spheroid caspase activation and IFNγ release; details: for Caspase activity in spheroids co-cultured with TIL exposed to activated autologous monocytes: highest dose of AUF, vs untreated control TIL
Description: as §2
For cytokine release assay, NK cells and TIL were cultured with indicated tumour cells at the effector target ratio 4:1 (E:T) for 24 h in U-bottom plates. IFNγ secretion was measured using human IFN-γ ELISA development kit (Mabtech) following the manufacturer's instructions.
5000 ANRU tumour cells were seeded per well in Ultra-Low Attachment 96-well plates (Corning Costar) in culture medium containing 2% Matrigel (Corning) for 3 days. 1×10^4AUF pre-treated TIL (see above), and spheroids were co-cultured and monitored for 48 h with the IncuCyte live cell imaging system (Essen Bioscience) in the presence of CellEvent™ Caspase 3/7 Green detection agent (Invitrogen).

CC(=O)OC[C@H]1O[C@@H]([S-])[C@H](OC(C)=O)[C@@H](OC(C)=O)[C@@H]1OC(C)=O.CCP(CC)CC.[Au+] [AUF, Auranofin]
Lysis of K562 target cells by pre-treated NK cells after H2O2 exposure (NK cells; 18 h pre-treatment, H2O2 1 h up to 250 μM, E:T 9:1, vs control NK cells): counteracted; also recorded: strong protective effect against ROS | Effector functions of NK cells (K562 lysis) vs controls (NK cells; 72 h after AUF removal, E:T 3:1): no differences | Killing of KASUMI-1 cells by pre-treated NK cells (NK cells; AML cell line KASUMI-1, H2O2, E:T 9:1): significantly increased killing | Killing of THP-1 cells by pre-treated NK cells (NK cells; AML cell line THP-1, H2O2, E:T 9:1): significantly increased killing | Time after start of pre-treatment with most pronounced protection of functional cytotoxicity capacity (NK cells; NK cells, K562 lysis, H2O2, E:T 9:1): around 18 h | Lysis of K562 by AUF pre-treated NK cells despite addition of ML385 (NK cells; compared to untreated controls): lysis was increased | Suppressive effect of H2O2 on lymphocyte function (killing, degranulation, IFNγ) (NK cells; expanded NK cells and patient derived TIL, pre-treatment): counteracts the suppressive effect of H2O2 on lymphocyte function | Duration of improved NK cell and TIL tolerance towards oxidative stress (NK cells; post pre-treatment): up to two to three days | Dependence of the protective effect on Nrf2 activation (NK cells; qPCR of Nrf2 target genes and K562 lysis with/without Nrf2 inhibitor ML385): dependent on Nrf2 activation | Effector functions of NK cells (K562 lysis) (NK cells; up to 48 h after AUF removal, E:T 3:1): significantly improved effector functions | Effector function of NK cells and TIL after H2O2 treatment (NK cells; up to 72 h after compound removal): increased effector function | Viability of ANRU TIL after exposure to H2O2 (ANRU TIL [1]): improved viability | Effect on intracellular ROS levels in TIL ([2]; 72 h after AUF removal): effects remained | Fluorescence correlating to intracellular ROS levels in TIL ([2]; KADA and BEHA TIL): lowered | Killing of CD19+ target cells by CD19 directed CAR T cells [3]: significantly increased killing | Killing of CD19+ target cells by CD19 directed CAR T cells ([3]; listed as auranofin): improved tumour killing | Capacity of TIL to infiltrate the spheroid (ANRU TIL [4]): no difference | Cytokine release (IFNγ) by TIL impaired by monocyte derived ROS (ANRU TIL [5]; 2D grown ANRU tumour cells): partially be rescued | Caspase activity in spheroids co-cultured with TIL exposed to activated autologous monocytes (ANRU TIL [5]): increased caspase activity | Caspase activity in spheroids co-cultured with TIL exposed to activated autologous monocytes (ANRU TIL [5]; listed as auranofin): increased elimination of spheroid grown tumour cells
